Assay results taken from US9457063B2, “Method for treatment of diabetic vascular leakage-induced disease using C-peptide” (KANGWON NATIONAL UNIVERSITY UNIVERSITY-INDUSTRY COOPERATION …, priority 2012, dated 2016).
“And” between values parts separate entries of the source, which are not always exact repeats. Equal values may be shown once.

What was measured:
[1] = system: HUVECs; assay: Intracellular Ca2+ levels in HUVECs (Fluo-4 AM); format: cell-based, human; conditions: HUVECs labeled with 1 μM Fluo-4 AM; for effect on VEGF-induced changes in intracellular Ca2+: n=3
Experimental: To monitor intracellular Ca^2+ levels, cells inoculated into coverslips were incubated with 1 μM Fluo-4 AM for 30 min. The coverslips were mounted on perfusion chambers and scanned every 10 sec by confocal microscopy (FV-300). Serial images from the scan were processed to analyze changes in intracellular Ca^2+ levels at the single-cell level. Data were expressed as the relative fluorescence intensity (RFI).

[2] = system: HUVECs; assay: VEGF-induced intracellular ROS generation in HUVECs; format: cell-based, human; conditions: for VEGF-induced intracellular ROS generation: HUVECs pre-incubated 30 min with 1 mM NAC, 0.5 mM Trolox or 5 μM BAPTA-AM, 10 ng/ml VEGF 10 min
Experimental: HUVECs were isolated from the human umbilical cord vein according to a well known process, and cells from passages 3 to 6 were used in the following experiments. Cells were inoculated into M199 culture media (supplemented with 20% FBS, 3 ng/ml bFGF, 5 U/ml heparin, 100 U/ml penicillin, and 100 μg/ml streptomycin) in 2% gelatin-coated coverslips, dishes, or plates, and grown at 37° C. in a humidified 5% CO2 incubator.
For experiments, cells were incubated for 6 h in low-serum medium (M199 supplemented as above, but with only 1% FBS), and treated for a suitable time with 10 ng/ml VEGF in the presence or absence of various concentrations of C-peptide.
In detail, HUVECs inoculated into coverslips were treated with VEGF and C-peptide, and incubated with 10 μM 2′,7′-dichlorodihydrofluorescein diacetate (Molecular Probes, Eugene, Oreg.) in phenol red-free media for the last 10 min. The coverslips were mounted on a perfusion chamber, and labeled cells were rapidly scanned by confocal microscopy. The level of intracellular ROS was determined by comparing the fluorescence intensities of treated cells with those of control cells, and expressing this as a fold difference.

[3] = system: microvessels of the diabetic mouse retina; assay: Disassembly of adherens junctions (VE-cadherin) in retina of diabetic mice; format: in vivo; conditions: intravitreal 2 μl C-peptide, n=3
Experimental: Diabetic mice were intravitreally injected with 2 μl C-peptide into one eye (Diabetic+C-Pep) and an equal volume of PBS into the contralateral eye (Diabetic, n=3). Normal (non-diabetic) mice also were intravitreally injected with 2 μl PBS into eyes (Normal, n=3).
VE-cadherin was stained in the retina and visualized using confocal microscopy as described below.
Microvessels were stained for VE-cadherin in retinal whole mounts. In detail, isolated retinas were fixed in 100% ethanol for 30 min, delipidated in 100% ice-cold acetone for 10 min, and permeabilized with 0.3% Triton X-100 for 1 hr. The retinas were incubated with an anti-VE-cadherin antibody (Enzo Life Sciences, Farmingdale, N.Y., USA) at 4° C. for 24 hrs, and probed with goat anti-mouse FITC (Sigma) at 4° C. for 24 hrs, followed by visualizing VE-cadherin by confocal microscopy (FV-300, Olympus).

[4] = system: retinas of streptozotocin diabetic mice; assay: Retinal vascular leakage in streptozotocin diabetic mice (FITC-dextran fluorescein angiography); format: in vivo; conditions: for retinal microvascular leakage (extravasation of FITC-dextran) in diabetic mice: intravitreal injection, VEGF antibody 100 μg/ml, N-acetyl-cysteine 81.5 mg/ml, Trolox 125 μg/ml, 2 μl C-peptide, 24 hrs post-injection, n=6, p<0.01
Experimental: Diabetic mice were generated by a single intraperitoneal injection of streptozotocin (150 mg/kg body weight) freshly prepared in 100 mM citrate buffer (pH 4.5). All mice were supplied with 10% sucrose overnight. Sufficient hyperglycemia was observed 2 days post-injection, as measured by the ACCU-CHEK® Active blood glucose monitor (Roche Diagnostics, Germany). One week after the streptozotocin injection, mice with non-fasting blood glucose levels greater than 16 mM, polyuria, and glucosuria were defined as diabetic and used for the experiments.
The diabetic mice were intravitreally injected with 2 μl of C-peptide (3.7 μg/ml) in PBS into one eye, and an equal volume of PBS was injected into the contralateral eye (n=6 per group). Normal (non-diabetic) mice were also intravitreally injected with 2 μl of PBS into eyes (Normal; n=6 per group). C-peptide concentrations in the vitreous chamber were maintained within the physiological range (0.9 to 2.0 nM) for 12 hrs after intravitreal injection.
After 24 hrs post injection, retina leakage was quantified using fluorescein angiography. In this regard, mice were injected with 1.25 mg of 500-kDa FITC-dextran (Sigma-Aldrich) into the left ventricle and the dye was allowed to circulate for 5 min. Eyes were enucleated and immediately fixed with 4% paraformaldehyde for 45 min. Retinas were dissected, cut in the Maltese cross-configuration, and flat-mounted onto slide glass. Retinas were observed using the confocal microscope. Retina leakage was quantitatively analyzed by determining the intensities of extravasated FITC-dextran from whole retina tissues (n=6 per group) using the FV-300 software.
Diabetic mice were intravitreally injected with a monoclonal VEGF antibody (100 μg/ml), N-acetyl-cysteine (81.5 mg/ml), or Trolox (125 μg/ml) into one eye, and an equal volume of PBS was injected into the contralateral eye (n=6 per group). Twenty four hrs post-injection, retinal vascular leakage was quantified using fluorescein angiography. For the experiment, mice were injected with 1.25 mg of 500-kDa FITC-dextran (Sigma) into the left ventricle and the dye was allowed to circulate for 5 min. The eyes were enucleated and immediately fixed with 4% paraformaldehyde for 45 min. Retinas were dissected, cut in the Maltese cross-configuration, and flat-mounted onto slide glass before observation using confocal microscopy. Retinal vascular leakage was quantitatively analyzed by determining the intensities of extravasated FITC-dextran from whole retina tissues (n=6 per group) using confocal microscopy (FV-300, Olympus, Tokyo, Japan), and applying the intensity data to the FV-300 software.

[5] = system: HUVECs; assay: VEGF-induced stress fiber formation in HUVECs (rhodamine-phalloidin); format: cell-based, human; conditions: HUVECs 1 hr; 10 ng/ml VEGF with 0.5 nM C-peptide, 1 mM NAC or 0.5 mM Trolox; n=3
Experimental: HUVECs were grown on gelatin-coated round coverslips in 12-well culture plates, […], alone or in combination, or with 10 ng/ml VEGF in the presence of an ROS scavenger, that is, 1 mM NAC or 0.5 mM Trolox for 1 hr at 37° C. The cells were rapidly rinsed with PBS and fixed with 3.7% formaldehyde in PBS for 30 min. Then, the cells were permeabilized with 0.2% Triton X-100 in PBS for 30 min, and stained with rhodamine-palloidin (Molecular Probes) in PBS for 1 h. The resulting stained cells were mounted on a glass slide using a mounting solution, followed by visualizing actin filaments by confocal microscopy.

[6] = system: HUVECs; assay: VEGF-induced disassembly of VE-cadherin adherens junctions in HUVECs; format: cell-based, human; conditions: for VEGF-induced disassembly of VE-cadherin: HUVECs 90 min, 10 ng/ml VEGF with 0.5 nM C-peptide, 1 mM NAC or 0.5 mM Trolox, n=3
Experimental: Confluent cell layers (HUVECs) in 6-well plates were incubated with C-peptide or an ROS scavenger for 30 min, and then treated with VEGF for 90 min at 37° C. The treated cells were rinsed with PBS, and fixed with 3.7% formaldehyde in PBS for 30 min. The cells were permeabilized with 0.2% Triton X-100 in PBS for 30 min, and stained overnight at 4° C. with a monoclonal VE-cadherin antibody (Santa Cruz Biotechnology, Santa Cruz, Calif.) in PBS. Thereafter, the cells were probed with goat anti-mouse FITC (fluorescein isothiocyanate; Sigma, St. Louis, Mo.), followed by visualizing VE-cadherin by confocal microscopy.

[7] = C-peptide levels in the vitreous fluid after intravitreal injection; format: in vivo, mice; conditions: mouse, 7.5 ng, after intravitreal injection of 2 μl C-peptide (3.7 μg/ml), maintained for 12 hrs, physiological range, read-out: C-peptide concentrations in the vitreous chamber
Experimental: After intravitreal injection, C-peptide levels in the vitreous fluid were monitored with time. In this regard, C-peptide was intravitreally injected at a dose of 7.5 ng, after which C-peptide in the vitreous chamber was quantitated using a human C-peptide ELISA kit (Millipore Co. Billerica, Mass.) (n=4).

[8] = Serum C-peptide levels during subcutaneous mini-osmotic pump delivery; format: in vivo; conditions: diabetic mice, 35 pmol/min/kg, n=7
Experimental: After implantation of a mini-osmotic pump for delivering C-peptide, blood c-peptide levels were measured. One group of diabetic mice (n=7) was subcutaneously implanted with ALZET® mini-osmotic pump 2004 (DURECT, Cupertino, Calif.) containing C-peptide in PBS with a delivery rate of 35 pmol/min/kg. The other diabetic (n=7) and control groups (n=7) underwent sham operations. During the continuous subcutaneous C-peptide perfusion, serum C-peptide levels were measured using a C-peptide Enzyme Immunoassay Kit (RayBiotech, Norcross, Ga.).

[9] = system: skin of streptozotocin diabetic mice; assay: Miles vascular permeability assay in skin of streptozotocin diabetic mice; format: in vivo
Experimental: A Miles vascular permeability assay was performed in diabetic mice as follows. After 2 to 3 days post-shaving, mice were anesthetized and intravenously injected with 150 μl of a 1% Evans blue solution. After 15 min, 15 μl of a VEGF (10 ng) solution containing 0, 7.5, or 15 ng of C-peptide was injected intradermally into the shaved skin of the mice (n=12 per group). PBS was injected for the control (n=12). An area of skin that included the blue spot resulting from leakage of the dye was dissected, and the Evans blue dye was eluted from the dissected skin by incubation with formamide at 56° C. for 2 days. The amount of dye was quantitated by spectrophotometry at 620 nm.

[10] = FIG. 6A
Excerpt: Table printed on a drawing sheet, FIG. 6A
Footnotes: Data are means ± S.D. / ***p<0.001 vs. control mice.
FIG. 6D is a graph in which serum C-peptide levels are plotted against time after intravitreal injection; and
First reader's note: Each column is a mouse group; the cells give mean ± S.D. of the serum C-peptide level.

SMILES | effect on VEGF-induced changes in intracellular Ca2+ [1] | VEGF-induced intracellular ROS generation [2] | diabetes-induced disassembly of adherens junctions in retinal microvessels [3] | extravasation of FITC-dextran (vascular leakage) in the retinas of diabetic mice ([4]; intravitreal 2 μl C-peptide (3.7 μg/ml), 24 hrs post injection, vs PBS contralateral eye, n=6, p<0.05) | retinal microvascular leakage (extravasation of FITC-dextran) in diabetic mice [4] | VEGF-induced stress fiber formation [5] | VEGF-induced disassembly of VE-cadherin [6] | VEGF-induced decrease in the fluorescence intensity of the adherens junctions ([6]; HUVECs, VE-cadherin histograms (RFI), FIG. 4B) | level at time molar [7] [nM] | effect of substance alone on intracellular Ca2+ ([1]; no VEGF) | serum C-peptide level [8] | concentration at which complete prevention of VEGF-induced ROS generation was observed ([2]; HUVECs pre-treated 30 min, 10 ng/ml VEGF) [nM] | VEGF-induced generation of intracellular ROS ([2]; HUVECs pre-treated with various concentrations of C-peptide 30 min, 10 ng/ml VEGF, dose-dependent) | VEGF-induced vascular permeability (Evans blue leakage) in skin ([9]; intradermal VEGF (10 ng) with 7.5 or 15 ng C-peptide, dose-dependent, n=12, p<0.01) | vascular permeability with C-peptide alone ([9]; intradermal, no VEGF) | Serum C-peptide (nM) (4 weeks after C-peptide delivery) [10] | Serum C-peptide (nM) (at 1 week of diabetes induction) [10]
CC(=O)OCOC(=O)CN(CC(=O)OCOC(C)=O)c1ccccc1OCCOc1ccccc1N(CC(=O)OCOC(C)=O)CC(=O)OCOC(C)=O [BAPTA-AM, 1,2-bis(2-aminophenoxy)ethane-N,N,N-′,N′-tetraacetic acid tetrakis(acetoxymethyl ester), reference compound] | blocked | blocked |  |  |  |  |  |  |  |  |  |  |  |  |  |  | 
CC(C)C[C@H](NC(=O)[C@H](C)NC(=O)[C@H](CC(C)C)NC(=O)[C@@H]1CCCN1C(=O)[C@H](CCC(N)=O)NC(=O)[C@H](CC(C)C)NC(=O)[C@H](CO)NC(=O)CNC(=O)[C@H](C)NC(=O)CNC(=O)[C@@H]1CCCN1C(=O)CNC(=O)CNC(=O)CNC(=O)[C@H](CC(C)C)NC(=O)[C@H](CCC(=O)O)NC(=O)[C@@H](NC(=O)[C@H](CCC(N)=O)NC(=O)CNC(=O)[C@@H](NC(=O)[C@H](CCC(N)=O)NC(=O)[C@H](CC(C)C)NC(=O)[C@H](CC(=O)O)NC(=O)[C@H](CCC(=O)O)NC(=O)[C@H](C)NC(=O)[C@@H](N)CCC(=O)O)C(C)C)C(C)C)C(=O)N[C@@H](CCC(=O)O)C(=O)NCC(=O)N[C@@H](CO)C(=O)N[C@@H](CC(C)C)C(=O)N[C@@H](CCC(N)=O)C(=O)O [C-peptide] | had no effect |  | inhibited | blocked | blocked | sufficiently suppressed | inhibited | recovered | 0.9 to 2 | did not increase | elevated to a normal value | 0.5 | inhibited | suppressed | did not cause a significant change | 1.50 ± 0.89 nM and 2.40 ± 0.93 nM | 1.44 ± 0.53
CC(=O)N[C@@H](CS)C(=O)O [NAC, N-acetyl-L-cysteine, reference compound] |  | abolished |  |  | prevented | inhibited | prevented |  |  |  |  |  |  |  |  |  | 
Cc1c(C)c2c(c(C)c1O)CCC(C)(C(=O)O)O2 (centres unmarked) [Trolox, reference compound] |  | abolished |  |  | prevented | inhibited | prevented |  |  |  |  |  |  |  |  |  | 
